Where “and” joins values, the source holds several entries; their conditions need not be identical. Equal entries are not always repeated.
Tests used:
[1] = biological target: T1, hABHD6 (Homo sapiens, UniProt Q9BV23); assay: Hydrolase activity assay, hABHD6-HEK lysates; assay type: biochemical; conditions: hABHD6-HEK lysates; read-out: IC50
T1 construct: expressed in transfected cells; host or cells: HEK293
T1 sequence (Q9BV23 1-337): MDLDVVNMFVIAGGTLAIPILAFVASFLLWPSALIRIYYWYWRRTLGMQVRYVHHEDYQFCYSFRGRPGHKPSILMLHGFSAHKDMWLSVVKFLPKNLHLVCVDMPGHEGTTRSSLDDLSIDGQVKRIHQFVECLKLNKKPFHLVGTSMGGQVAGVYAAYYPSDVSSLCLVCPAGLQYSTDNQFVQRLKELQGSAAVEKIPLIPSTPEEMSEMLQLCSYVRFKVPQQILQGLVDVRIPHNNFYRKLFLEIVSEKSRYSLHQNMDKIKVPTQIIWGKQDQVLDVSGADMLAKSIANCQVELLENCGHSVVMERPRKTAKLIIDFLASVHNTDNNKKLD

[2] = biological target: T2, hMAGL (Homo sapiens, UniProt Q99685); assay: Hydrolase activity assay, hMAGL-HEK lysates; assay type: biochemical
T2 construct: expressed in transfected cells; host or cells: HEK
T2 sequence (Q99685 1-303): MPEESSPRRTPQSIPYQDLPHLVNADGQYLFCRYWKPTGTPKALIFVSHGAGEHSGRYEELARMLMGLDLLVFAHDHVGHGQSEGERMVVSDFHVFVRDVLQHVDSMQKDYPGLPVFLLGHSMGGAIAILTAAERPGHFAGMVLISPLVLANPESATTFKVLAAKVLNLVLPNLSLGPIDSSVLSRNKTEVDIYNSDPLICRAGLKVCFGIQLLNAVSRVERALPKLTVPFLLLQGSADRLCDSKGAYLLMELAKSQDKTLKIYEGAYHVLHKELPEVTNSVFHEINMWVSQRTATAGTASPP

[3] = biological target: T3, hABHD12 (Homo sapiens, UniProt Q8N2K0); assay: Hydrolase activity assay, hABHD12-HEK lysates; assay type: biochemical
T3 construct: expressed in transfected cells; host or cells: HEK293
T3 sequence (Q8N2K0 1-398): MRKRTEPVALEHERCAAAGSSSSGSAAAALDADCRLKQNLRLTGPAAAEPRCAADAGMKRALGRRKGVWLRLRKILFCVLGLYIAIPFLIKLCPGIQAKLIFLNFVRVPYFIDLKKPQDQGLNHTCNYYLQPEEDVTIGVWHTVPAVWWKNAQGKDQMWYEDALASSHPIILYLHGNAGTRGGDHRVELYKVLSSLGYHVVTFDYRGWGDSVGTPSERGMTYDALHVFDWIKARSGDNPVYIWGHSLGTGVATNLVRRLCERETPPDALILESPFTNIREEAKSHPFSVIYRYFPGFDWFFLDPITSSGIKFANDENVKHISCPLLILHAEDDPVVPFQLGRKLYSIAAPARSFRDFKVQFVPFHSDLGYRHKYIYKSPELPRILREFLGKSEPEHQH

[4] = biological target: T4, hFAAH (Homo sapiens, UniProt O00519); assay: FAAH activity assay, hFAAH-COS7 membranes (3H-anandamide); assay type: biochemical
T4 construct: expressed in transfected cells; host or cells: COS-7
T4 sequence (O00519 1-579): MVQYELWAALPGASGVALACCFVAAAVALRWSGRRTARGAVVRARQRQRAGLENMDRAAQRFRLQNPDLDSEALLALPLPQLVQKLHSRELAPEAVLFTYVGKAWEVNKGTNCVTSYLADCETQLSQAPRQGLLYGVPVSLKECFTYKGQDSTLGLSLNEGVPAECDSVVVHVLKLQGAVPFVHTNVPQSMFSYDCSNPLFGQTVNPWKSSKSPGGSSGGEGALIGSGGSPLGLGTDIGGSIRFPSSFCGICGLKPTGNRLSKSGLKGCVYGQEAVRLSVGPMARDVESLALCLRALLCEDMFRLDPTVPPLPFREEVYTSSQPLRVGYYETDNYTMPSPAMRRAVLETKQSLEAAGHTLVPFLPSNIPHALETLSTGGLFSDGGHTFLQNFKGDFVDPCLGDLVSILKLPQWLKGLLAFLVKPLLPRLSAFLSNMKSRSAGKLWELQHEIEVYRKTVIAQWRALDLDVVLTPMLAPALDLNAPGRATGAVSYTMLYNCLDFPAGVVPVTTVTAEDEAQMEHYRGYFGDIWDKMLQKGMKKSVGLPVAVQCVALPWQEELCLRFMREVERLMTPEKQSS

[5] = biological target: T5, hBAT5 (Homo sapiens, UniProt O95870); assay: Inhibition of 1-LG hydrolysis in hBAT5-HEK293 lysates (fluorescent glycerol assay); assay type: biochemical; set-up: host or cells: HEK293
T5 sequence (O95870 1-558): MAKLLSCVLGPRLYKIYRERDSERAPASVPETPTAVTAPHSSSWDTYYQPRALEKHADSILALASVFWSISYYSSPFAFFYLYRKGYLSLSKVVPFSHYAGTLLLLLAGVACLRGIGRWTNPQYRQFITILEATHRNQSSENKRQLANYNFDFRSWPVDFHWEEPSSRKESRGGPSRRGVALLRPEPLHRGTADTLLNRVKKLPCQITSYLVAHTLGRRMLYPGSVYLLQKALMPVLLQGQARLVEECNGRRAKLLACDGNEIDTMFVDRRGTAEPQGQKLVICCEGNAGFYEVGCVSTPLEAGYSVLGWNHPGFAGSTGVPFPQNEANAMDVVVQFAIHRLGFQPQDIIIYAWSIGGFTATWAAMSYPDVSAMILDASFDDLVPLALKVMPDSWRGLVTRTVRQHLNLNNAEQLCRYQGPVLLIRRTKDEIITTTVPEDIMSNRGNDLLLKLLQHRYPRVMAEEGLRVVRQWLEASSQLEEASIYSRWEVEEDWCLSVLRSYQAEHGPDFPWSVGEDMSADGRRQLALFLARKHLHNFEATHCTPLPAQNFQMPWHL

[6] = biological target: T6, mBAT5 (Mus musculus, UniProt Q9Z1Q2); assay: Competitive ABPP (TAMRA-FP) with mBAT5-HEK293 lysates; conditions: 1 h pretreatment
T6 sequence (Q9Z1Q2 1-558): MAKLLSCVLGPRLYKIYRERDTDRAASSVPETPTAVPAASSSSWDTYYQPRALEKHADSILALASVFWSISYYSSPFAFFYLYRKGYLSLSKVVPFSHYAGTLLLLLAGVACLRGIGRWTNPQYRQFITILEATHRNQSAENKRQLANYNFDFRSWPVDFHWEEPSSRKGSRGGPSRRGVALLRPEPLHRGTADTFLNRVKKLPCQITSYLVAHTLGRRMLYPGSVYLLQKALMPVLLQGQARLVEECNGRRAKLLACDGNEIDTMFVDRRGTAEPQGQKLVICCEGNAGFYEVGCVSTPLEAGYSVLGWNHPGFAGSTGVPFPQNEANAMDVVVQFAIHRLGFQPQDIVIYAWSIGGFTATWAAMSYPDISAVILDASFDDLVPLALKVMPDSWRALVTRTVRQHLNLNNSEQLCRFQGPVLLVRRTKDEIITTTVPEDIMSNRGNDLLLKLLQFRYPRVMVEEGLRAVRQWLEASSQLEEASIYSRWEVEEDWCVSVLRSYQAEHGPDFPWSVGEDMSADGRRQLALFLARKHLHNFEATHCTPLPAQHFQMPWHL
Protocol: Inhibitor dose–response curves and IC50 values derived thereof were calculated from non-linear regressions using GraphPad Prism 5.0 for Windows. The logIC50 values are means ± SEM from three independent experiments. […] The data are derived from three separate ABPP experiments.

[7] = biological target: T1, hABHD6; set-up: method as in PMID 22969151; conditions: 2-AG as the substrate; range given jointly for hABHD6, hABHD12 and hMAGL; cited from earlier work
[8] = biological target: T2, hMAGL; conditions: 2-AG as the substrate; range given jointly for hABHD6, hABHD12 and hMAGL; cited from earlier work
[9] = biological target: T3, hABHD12; set-up: method as in PMID 22969151; conditions: 2-AG as the substrate; range given jointly for hABHD6, hABHD12 and hMAGL; cited from earlier work
[10] = at 10^−5 M, read-out: Remaining activity

| IC50 [1] | sensitivity of hMAGL (in words) [2] | remaining activity at 10 µM [2, 10] | sensitivity of hABHD12 (in words) [3] | remaining activity at 10 µM [3, 10] | sensitivity of hFAAH (in words) [4] | remaining activity at 10 µM [4, 10] | hBAT5 inhibitory activity (in words) ([5]; 1-LG hydrolysis) | remaining activity at 10 µM ([5]; at 10^-5 M, 1-LG 25 µM) | inhibition of probe binding to mBAT5 (in words) [6] | SMILES | Km [7] | Km [8] | Km [9] |
| --- | --- | --- | --- | --- | --- | --- | --- | --- | --- | --- | --- | --- | --- |
| ~3.2 µM and 3.2 µM | resistant | 106% | resistant | 103% | resistant | 79.2% | inactive | 102.6 ± 1% | inactive | CC(=C\C(=O)O)/C=C(\C)C[C@H](C)CCCC[C@H]1OC(=O)[C@@H]1CO [Hymeglusin, hymeglusin] | – | – | – |
| – | – | – | – | – | – | – | – | – | – | CCCCC/C=C\C/C=C\C/C=C\C/C=C\CCCC(=O)OC(CO)CO [2-AG, 2-arachidonoylglycerol] | 110 to 160 µM | 110 to 160 µM | 110 to 160 µM |
